For data set [1], the target named is T1, Amylin receptor AMY3; CALCR/RAMP3 (Homo sapiens, UniProt O60896+P30988).
T1 sequence (P30988 whole entry): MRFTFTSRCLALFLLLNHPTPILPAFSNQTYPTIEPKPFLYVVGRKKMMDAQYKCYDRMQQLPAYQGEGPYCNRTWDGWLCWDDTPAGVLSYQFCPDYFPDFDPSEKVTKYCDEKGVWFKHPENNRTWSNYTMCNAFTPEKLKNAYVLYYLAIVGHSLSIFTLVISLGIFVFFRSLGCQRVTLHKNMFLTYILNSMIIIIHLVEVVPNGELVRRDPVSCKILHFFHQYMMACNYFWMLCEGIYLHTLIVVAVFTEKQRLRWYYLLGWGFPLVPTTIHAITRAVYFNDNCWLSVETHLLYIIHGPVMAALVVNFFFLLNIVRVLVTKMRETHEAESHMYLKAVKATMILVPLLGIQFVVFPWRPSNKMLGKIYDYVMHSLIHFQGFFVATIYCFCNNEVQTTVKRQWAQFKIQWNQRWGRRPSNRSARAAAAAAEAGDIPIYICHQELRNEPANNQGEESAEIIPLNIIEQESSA
T1 sequence (O60896 whole entry): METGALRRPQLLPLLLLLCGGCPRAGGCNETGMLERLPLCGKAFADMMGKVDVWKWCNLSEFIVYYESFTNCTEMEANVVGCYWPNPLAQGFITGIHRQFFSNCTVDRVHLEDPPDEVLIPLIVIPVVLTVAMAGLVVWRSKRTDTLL
As to the kind of experiment: Agonist activity at human amylin receptor expressed in BHK570 cells co-expressing RAMP3 assessed as increase in intracellular cAMP concentration incubated for 3 hrs in absence of albumin by CRE luciferase reporter gene assay. In kind it is functional, cell-based. Background: A reporter such as luciferase makes a cellular process visible.

For data set [2], the target named is T2, Calcitonin receptor (Homo sapiens, UniProt P30988).
T2 sequence (P30988 whole entry): T1 sequence (P30988 whole entry)
Briefly: Agonist activity at human calcitonin receptor expressed in BHK570 cells assessed as increase in intracellular cAMP concentration incubated for 3 hrs in absence of albumin by CRE luciferase reporter gene assay. It counts as functional, cell-based.

Data set [3] in a line: Solubility in 100 mM glycylglycine buffer at pH 3.0 incubated for 18 hrs by UPLC analysis. In kind it is physicochemical.
A short description of data set [4]: Solubility in 100 mM glycylglycine buffer at pH 4.0 incubated for 18 hrs by UPLC analysis. In kind it is physicochemical.
Data set [5] in a line: Solubility in 100 mM bistrispropane buffer at pH 6.0 incubated for 18 hrs by UPLC analysis. It counts as physicochemical.
Data set [6] can be described thus: Solubility in 100 mM glycylglycine buffer at pH 5.0 incubated for 18 hrs by UPLC analysis. It counts as physicochemical.
A short description of data set [7]: Solubility in 100 mM bistrispropane buffer at pH 6.5 incubated for 18 hrs by UPLC analysis. In kind it is physicochemical.
A short description of data set [8]: Solubility in 100 mM bistrispropane buffer at pH 7.0 incubated for 18 hrs by UPLC analysis. In kind it is physicochemical.
The nature of data set [9]: Solubility in 100 mM bistrispropane buffer at pH 7.5 incubated for 18 hrs by UPLC analysis. In kind it is physicochemical.
Data set [10] is described as follows: Solubility in 100 mM bistrispropane buffer at pH 8.0 incubated for 18 hrs by UPLC analysis. It counts as physicochemical.
The target in data set [11] is T2, Calcitonin receptor. As to the kind of experiment: Agonist activity at human calcitonin receptor expressed in BHK570 cells assessed as increase in intracellular cAMP concentration incubated for 3 hrs in presence of 10% FBS by CRE luciferase reporter gene assay. It counts as functional, cell-based.

SMILES strings stand for the structures. Numbered stars: 1 amine (or outer) side, 2 acyl side, 3 side chain; on linkers, the order of the positions; unused ones are H or OH. Peptide text beside a SMILES is read from it. * marks the point of attachment. C20 diacid = O=C(O)CCCCCCCCCCCCCCCCCCC(=O)*; C18 diacid = O=C(O)CCCCCCCCCCCCCCCCC(=O)*; γGlu = O=C(O)[C@H](CCC(=O)[*:2])N[*:1]

Turning to `CC(C)C[C@H](NC(=O)[C@H](CCC(=O)O)NC(=O)[C@H](Cc1cnc[nH]1)NC(=O)[C@H](CC(C)C)NC(=O)[C@H](CCC(=O)O)NC(=O)[C@H](C)NC(=O)[C@H](CO)NC(=O)[C@H](CC(C)C)NC(=O)[C@H](CCCNC(=N)N)NC(=O)CNC(=O)[C@H](CC(C)C)NC(=O)[C@@H](NC(=O)[C@H](C)NC(=O)[C@@H](NC(=O)[C@H](CO)NC(=O)[C@H](CC(C)C)NC(=O)[C@@H]1CCCN1C(=O)[C@@H]1CCCN1C(=O)[C@H](C)NC(=O)[C@H](CCC(=O)O)NC(=O)CCCCCCCCCCCCCCCCC(=O)O)[C@@H](C)O)C(C)C)C(=O)N[C@@H](C)C(=O)N[C@H](C(=O)N[C@@H](CC(C)C)C(=O)N1CCC[C@H]1C(=O)N[C@@H](CCCNC(=N)N)C(=O)N[C@H](C(=O)N[C@@H](CCC(=O)O)C(=O)N[C@H](C(=O)NCC(=O)N1CCC[C@H]1C(=O)N[C@@H](CCC(=O)O)C(=O)N[C@@H](CO)C(=O)N1CCC[C@H]1C(N)=O)[C@@H](C)O)[C@@H](C)O)[C@@H](C)O` ({C18 diacid}-EAPPLSTAVLGRLSAELHELATLPRTETGPESP-NH2), the concentration giving a half-maximal response (EC50) is 0.012 nM in data set [1] and 0.006 nM in [2]. Also, the solubility at 18 h in [3], in [4], in [5], in data set [6], in [7] and in [8] was not below 200 µM throughout. Besides, the solubility at 18 h in data set [9] and in [10] was not below 200 µM each time.

In the case of `CC(C)C[C@H](NC(=O)[C@H](C)NC(=O)[C@@H](NC(=O)[C@H](CO)NC(=O)[C@H](CC(C)C)NC(=O)[C@H](CCC(=O)O)NC(=O)[C@H](CO)NC(=O)[C@H](C)NC(=O)[C@H](CCC(=O)O)NC(=O)CCCCCCCCCCCCCCCCC(=O)O)[C@@H](C)O)C(=O)N[C@@H](C)C(=O)NCC(=O)N[C@@H](CCCNC(=N)N)C(=O)N[C@@H](CC(C)C)C(=O)N[C@@H](CO)C(=O)N[C@@H](C)C(=O)N[C@@H](CCC(=O)O)C(=O)N[C@@H](CC(C)C)C(=O)N[C@@H](Cc1cnc[nH]1)C(=O)N[C@@H](CCC(=O)O)C(=O)N[C@@H](CC(C)C)C(=O)N[C@@H](C)C(=O)N[C@H](C(=O)N[C@@H](CC(C)C)C(=O)N1CCC[C@H]1C(=O)N[C@@H](CCCNC(=N)N)C(=O)N[C@H](C(=O)N[C@@H](CCC(=O)O)C(=O)N[C@H](C(=O)NCC(=O)N1CCC[C@H]1C(=O)N[C@@H](CCC(=O)O)C(=O)N[C@@H](CO)C(=O)N1CCC[C@H]1C(N)=O)[C@@H](C)O)[C@@H](C)O)[C@@H](C)O` ({C18 diacid}-EASELSTALAGRLSAELHELATLPRTETGPESP-NH2), the EC50 in data set [1] was 0.008 nM; in data set [2] it was 0.004 nM. Moreover, the solubility at 18 h in [3], in data set [4], in [5], in data set [6], in [7] and in data set [8] was not below 200 µM in each case. In addition, the solubility at 18 h in data set [9] and in data set [10] was not below 200 µM in each case.

As for `CC(C)C[C@H](NC(=O)[C@H](C)NC(=O)[C@@H](NC(=O)[C@H](CO)NC(=O)[C@H](CC(C)C)NC(=O)[C@H](CCC(=O)O)NC(=O)[C@H](CO)NC(=O)[C@H](C)NC(=O)[C@H](CCC(=O)O)NC(=O)CCCCCCCCCCCCCCCCC(=O)O)[C@@H](C)O)C(=O)N[C@@H](CC(C)C)C(=O)NCC(=O)N[C@@H](CCCNC(=N)N)C(=O)N[C@@H](CC(C)C)C(=O)N[C@@H](CO)C(=O)N[C@@H](C)C(=O)N[C@@H](CCC(=O)O)C(=O)N[C@@H](CC(C)C)C(=O)N[C@@H](Cc1cnc[nH]1)C(=O)N[C@@H](CCC(=O)O)C(=O)N[C@@H](CC(C)C)C(=O)N[C@@H](C)C(=O)N[C@H](C(=O)N[C@@H](CC(C)C)C(=O)N1CCC[C@H]1C(=O)N[C@@H](CCCNC(=N)N)C(=O)N[C@H](C(=O)N[C@@H](CCC(=O)O)C(=O)N[C@H](C(=O)NCC(=O)N1CCC[C@H]1C(=O)N[C@@H](CCC(=O)O)C(=O)N[C@@H](CO)C(=O)N1CCC[C@H]1C(N)=O)[C@@H](C)O)[C@@H](C)O)[C@@H](C)O` ({C18 diacid}-EASELSTALLGRLSAELHELATLPRTETGPESP-NH2), the EC50 in data set [1] was 0.028 nM; in data set [2], 0.013 nM. For the same compound, the solubility at 18 h in data set [3], in data set [4], in data set [5], in data set [6], in data set [7] and in [8] was not below 200 µM throughout. Moreover, the solubility at 18 h in data set [9] and in [10] was not below 200 µM throughout.

On to `CC(C)C[C@H](NC(=O)[C@H](CCC(=O)O)NC(=O)[C@H](Cc1cnc[nH]1)NC(=O)[C@H](CC(C)C)NC(=O)[C@H](CCC(=O)O)NC(=O)[C@H](C)NC(=O)[C@H](CO)NC(=O)[C@H](CC(C)C)NC(=O)[C@H](CCCCN)NC(=O)CNC(=O)[C@H](CC(C)C)NC(=O)[C@@H](NC(=O)[C@H](C)NC(=O)[C@@H](NC(=O)[C@H](CO)NC(=O)[C@H](CC(C)C)NC(=O)[C@H](CCC(=O)O)NC(=O)[C@H](CO)NC(=O)[C@H](C)NC(=O)[C@H](CCC(=O)O)NC(=O)CCCCCCCCCCCCCCCCC(=O)O)[C@@H](C)O)C(C)C)C(=O)N[C@@H](C)C(=O)N[C@H](C(=O)N[C@@H](CC(C)C)C(=O)N1CCC[C@H]1C(=O)N[C@@H](CCCCN)C(=O)N[C@H](C(=O)N[C@@H](CCC(=O)O)C(=O)N[C@H](C(=O)NCC(=O)N1CCC[C@H]1C(=O)N[C@@H](CCC(=O)O)C(=O)N[C@@H](CO)C(=O)N1CCC[C@H]1C(N)=O)[C@@H](C)O)[C@@H](C)O)[C@@H](C)O` ({C18 diacid}-EASELSTAVLGKLSAELHELATLPKTETGPESP-NH2), for which the EC50 in [1] was 0.016 nM; in data set [2] it was 0.008 nM. Also, the solubility at 18 h in data set [3], in data set [4], in data set [5], in data set [6], in data set [7] and in [8] was not below 200 µM throughout. Besides, the solubility at 18 h in data set [9] and in data set [10] was not below 200 µM throughout.

As for `CC(C)C[C@H](NC(=O)[C@H](CO)NC(=O)[C@H](C)NC(=O)[C@@H](NC(=O)[C@H](CO)NC(=O)[C@H](CC(C)C)NC(=O)[C@H](CCC(=O)O)NC(=O)[C@H](CO)NC(=O)[C@H](C)NC(=O)CC[C@H](NC(=O)CCCCCCCCCCCCCCCCCCC(=O)O)C(=O)O)[C@@H](C)O)C(=O)NCC(=O)N[C@@H](CCCNC(=N)N)C(=O)N[C@@H](CC(C)C)C(=O)N[C@@H](CO)C(=O)N[C@@H](C)C(=O)N[C@@H](CCC(=O)O)C(=O)N[C@@H](CC(C)C)C(=O)N[C@@H](Cc1cnc[nH]1)C(=O)N[C@@H](CCC(=O)O)C(=O)N[C@@H](CC(C)C)C(=O)N[C@@H](C)C(=O)N[C@H](C(=O)N[C@@H](Cc1ccc(O)cc1)C(=O)N1CCC[C@H]1C(=O)N[C@@H](CCCNC(=N)N)C(=O)N[C@H](C(=O)N[C@@H](CCC(=O)O)C(=O)N[C@H](C(=O)NCC(=O)N[C@@H](CO)C(=O)NCC(=O)N[C@@H](CO)C(=O)N[C@@H](Cc1ccc(O)cc1)C(N)=O)[C@@H](C)O)[C@@H](C)O)[C@@H](C)O` ({C20 diacid-γGlu}-ASELSTASLGRLSAELHELATYPRTETGSGSY-NH2), the values for the EC50 in data set [1] and in data set [11] were 0.037 nM and 0.042 nM, respectively. In addition, the solubility at 18 h in [3], in data set [5], in data set [7], in data set [8], in data set [9] and in data set [10] was not below 200 µM in each case.

As usually defined, the EC50 is the concentration that produces a half-maximal response. The term solubility denotes the concentration that dissolves in the medium under given conditions. Higher therefore signals a readily soluble substance.

The record behind these values is ChEMBL document CHEMBL4420076, “Amylin and calcitonin receptor agonist” (2017).
